Measured values as given in US20240180802A1, “USE OF NEUROSPORENE TO PROTECT THE SKIN FROM THE HARMFUL EFFECTS OF BLUE LIGHT” (DEINOVE, priority 2019, published 2024).

Tests used:
[1] = tested on: HaCaT human keratinocytes; assay: Assaying of ATP after irradiation with blue light; format: cell-based; conditions: 24 h pretreatment with dry bacterial extract in DMSO containing 0.05 μg/ml neurosporene; blue light 460 nm, 100 J/cm2; ATP standardized by live cells; FIG. 10
Method: HaCaT human keratinocytes were seeded into 96-well microplates in a proportion of 20 000 cells/well in DMEM supplemented with 10% of fetal calf serum and incubated at 37° C. in 5% CO2 and 95% humidity for 24 hours. After a period of recovery, the cells were pretreated with a dry bacterial extract taken up in DMSO and containing 0.05 μg/ml of neurosporene and a mixture of carotenoids (phytoene, lycopene, zeta-carotene, phytofluene and gamma-carotene), the neurosporene being the major carotenoid of this extract. The cells were incubated at 37° C. in 5% CO2 and 95% humidity for 24 hours. Immediately afterwards, the cells were irradiated with blue light (460 nm, 100 J/cm 2). The cells were then washed three times in 1×PBS buffer and permeabilized with 2% triton at 25° C. for 20 min. The supernatants were then collected in order to quantify the ATP by luminescence (Invitrogen™ ATP Determination Kit, Molecular Probes™). The amount of ATP per well is standardized by the amount of live cells. Each condition was carried out in triplicate.

[2] = tested on: HaCaT human keratinocytes; assay: Detection of ROSs in keratinocytes under irradiation with UVA radiation; format: cell-based; conditions: 1 h pretreatment, neurosporene 0 to 4 μg/ml or bacterial extract 0 to 15 μg/ml; UVA 20 J/cm2; CellROX deep red; FIGS. 1-2
Method: (§1) HaCaT human keratinocytes were seeded into 96-well microplates in a proportion of 10 000 cells/well in DMEM medium supplemented with 10% of FCS (fetal calf serum) and incubated at 37° C. in 5% CO2 and 95% humidity for 24 hours. After this period of recovery, the cells were pretreated with either 43 μg/ml of α-tocopherol or with an increasing range of neurosporene (from 0 to 4 μg/ml) or with an increasing range of bacterial extract comprising neurosporene (from 0 to 15 μg/ml) for one hour. At the end of the pretreatment, 5 μM of “CellROX deep red” (a label which becomes fluorescent in the presence of reactive oxygen species (ROS)) and Hoechst (10 μg/ml) (which becomes fluorescent when it is bound to the DNA in the nucleus) were added to the medium. Immediately afterwards, the cells were treated either with UVA radiation (20 J/cm 2), or with a blue light (460 nm, 150 J/cm 2). The cells were then washed three times in 1×DPBS buffer and observed under a fluorescence microscope (CellInsight CX7, ThermoFisher). The fluorescence signals were then analyzed using the HCS Studio software (ThermoFisher) in order to quantify the ROSs produced in the cytosol.

[3] = tested on: explants of human skin of phototype IV; assay: Quantification of the melanin in human skin explants irradiated with blue light; conditions: topical refined plant oil with 12.5 ppm neurosporene and 4 ppm other carotenoids, 5 mg/cm2 daily; blue light 447 nm, 202.6 J/cm2; Fontana-Masson staining; p-value<0.01
Method: Explants of human skin of phototype IV were placed under culture conditions. After 24 h, three conditions were studied: a nontreated control, a topical treatment with refined plant oil alone or a topical treatment with a preparation of refined plant oil containing neurosporene (12.5 ppm of neurosporene and 4 ppm of a mixture of carotenoids, namely phytoene, lycopene, zeta-carotene, phytofluene and gamma-carotene). The products were applied every day (5 mg/cm 2) for 3 days. Each condition was carried out in triplicate.
After 3 days of pretreatment, a blue light stress was applied by irradiation at the wavelength of 447 nm each day for 3 days, corresponding to a dose of 202.6 J/cm^2. After each irradiation, the explants were again and, depending on the conditions, not treated or treated either with plant oil alone or with the plant oil containing neurosporene.
The melanin was then quantified after analysis of images taken with an epifluorescence microscope (Zeiss, Axio Imager Z1, ApoTome, Zen2 software blue edition) and staining according to the Fontana Masson method. The images were then analyzed on ImageJ. The area of melanin staining was standardized by the length of the basal lamina. The experiment was carried out in triplicate for each condition (nontreated, treatment with vegetable oil alone, treatment with vegetable oil enriched in neurosporene).

[4] = tested on: HaCaT human keratinocytes; assay: Detection of ROSs in keratinocytes under irradiation with blue light; format: cell-based; conditions: 1 h pretreatment, neurosporene 0 to 4 μg/ml or bacterial extract 0 to 15 μg/ml; blue light 460 nm, 150 J/cm2; CellROX deep red; FIGS. 3-4
Method: as §1

[5] = tested on: HaCaT human keratinocytes; assay: Wound healing test (scratched keratinocyte monolayer); format: cell-based; conditions: neurosporene 0.12 μg/ml; FCS-free DMEM; FIG. 6
Method: HaCaT human keratinocytes were seeded into 96-well microplates in a proportion of 33 000 cells/well in DMEM medium supplemented with 10% of FCS and incubated at 37° C. in 5% CO2 and 95% humidity for 24 hours. Once confluence was reached, the cells were washed three times in FCS-free DMEM in order to remove from the wells the growth factors present in the complete medium. The keratinocyte monolayers were then scratched using a “WoundMaker” (Essen Biosciences) which makes it possible to injure cell monolayers in 96-well format. The cells were then washed three times with FCS-free DMEM in order to remove the cell debris. After washing, DMEM medium was added to the wells. EGF (Epidermal growth factor, ng/ml) used as positive control for injury filling or neurosporene (0.12 μg/ml) was added to the wells. The wound healing was observed by phase-contrast microscopy using an “Incucyte ZOOM” (Essen Biosciences), which is an automatic microscope maintained in a CO2 incubator. The images were then processed using the associated software.

[6] = ABTS radical cation reduction test; format: physicochemical; conditions: 5 min at ambient temperature, expressed as α-tocopherol equivalent, FIG. 7
Method: The ABTS test is based on the use of colored cationic radicals. In the presence of a molecule having an antioxidant power, the colored cationic radical is reduced and loses its color. Consequently, the antioxidant power of a molecule can be measured by the decoloration of the radical.
A solution was prepared by mixing ABTS (7 mM), potassium persulfate (2.45 mM) and water (qs 5 ml) and incubated for 16 hours at ambient temperature in the dark. Next, a range of eight concentrations of neurosporene, lycopene, α-tocopherol, 9Z-β carotene, zeaxanthin, trolox and D-tocotrienol was dispensed into 96-well microplates before adding the ABTS solution prepared above. The microplates were then incubated at ambient temperature for 5 min, and the coloration was then analyzed at 250 nm using a microplate reader.

## CC(C)=CCC/C(C)=C/C=C/C(C)=C/C=C/C(C)=C/C=C/C=C(C)/C=C/C=C(\C)CC/C=C(\C)CCC=C(C)C [neurosporene, 7,8-dihydro-ψ,ψ-carotene]
[1]
  effect on intracellular ATP reduction induced by blue light: makes it possible to limit the ATP reduction induced by blue light
[2]
  antioxidant power against UVA radiation (ROSs produced in the cytosol): strong antioxidant power
[3]
  melanin production induced by blue light, change compared to the control exposed without treatment: −25%
[4]
  antioxidant power against blue light (ROSs produced in the cytosol): strong antioxidant power
[5]
  improvement of wound healing (injury filling by cell confluence) compared to nontreated control: 35%
[6]
  antioxidant power relative to reference molecule α-tocopherol: two times greater
